The numbers were not newly measured in patent US11818994B2, “Brachiaria endophytes and related methods” (Agriculture Victoria Services PTY LTD, priority 2015, dated 2023), which cites them from elsewhere.

The test system of the data set is Nitrosomonas spp. Particulars: Subbarao et al. 2009.

Take brachialactone: the “biocidal activity against Nitrosomonas spp” value is “biocidal activity”.
